For the experiment, the target named is POLRMT (Homo sapiens (Human), UniProt O00411). Kind of experiment: homogeneous TR-FRET assay of mitochondrial transcription (inhibition of POLRMT). To be noted: 7.5 nM POLRMT, 15 nM TFB2M, 30 nM TFAM, 0.5 nM DNA template, 500 μM NTPs, 37° C. for 60 minutes. The format is biochemical. The gist of the method:
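POLRMT transcription from linearized pUC-LSP DNA template; RNA product detected by hybridization of ATTO647 acceptor (1 nM) and biotinylated donor (3 nM) probes plus Europium-streptavidin. Reaction stopped with EDTA/700 mM NaCl buffer, pH 7.5.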
In general terms: Time-resolved FRET reads energy transfer from a long-lived donor to a nearby acceptor.

Chain of POLRMT (O00411 42-1230): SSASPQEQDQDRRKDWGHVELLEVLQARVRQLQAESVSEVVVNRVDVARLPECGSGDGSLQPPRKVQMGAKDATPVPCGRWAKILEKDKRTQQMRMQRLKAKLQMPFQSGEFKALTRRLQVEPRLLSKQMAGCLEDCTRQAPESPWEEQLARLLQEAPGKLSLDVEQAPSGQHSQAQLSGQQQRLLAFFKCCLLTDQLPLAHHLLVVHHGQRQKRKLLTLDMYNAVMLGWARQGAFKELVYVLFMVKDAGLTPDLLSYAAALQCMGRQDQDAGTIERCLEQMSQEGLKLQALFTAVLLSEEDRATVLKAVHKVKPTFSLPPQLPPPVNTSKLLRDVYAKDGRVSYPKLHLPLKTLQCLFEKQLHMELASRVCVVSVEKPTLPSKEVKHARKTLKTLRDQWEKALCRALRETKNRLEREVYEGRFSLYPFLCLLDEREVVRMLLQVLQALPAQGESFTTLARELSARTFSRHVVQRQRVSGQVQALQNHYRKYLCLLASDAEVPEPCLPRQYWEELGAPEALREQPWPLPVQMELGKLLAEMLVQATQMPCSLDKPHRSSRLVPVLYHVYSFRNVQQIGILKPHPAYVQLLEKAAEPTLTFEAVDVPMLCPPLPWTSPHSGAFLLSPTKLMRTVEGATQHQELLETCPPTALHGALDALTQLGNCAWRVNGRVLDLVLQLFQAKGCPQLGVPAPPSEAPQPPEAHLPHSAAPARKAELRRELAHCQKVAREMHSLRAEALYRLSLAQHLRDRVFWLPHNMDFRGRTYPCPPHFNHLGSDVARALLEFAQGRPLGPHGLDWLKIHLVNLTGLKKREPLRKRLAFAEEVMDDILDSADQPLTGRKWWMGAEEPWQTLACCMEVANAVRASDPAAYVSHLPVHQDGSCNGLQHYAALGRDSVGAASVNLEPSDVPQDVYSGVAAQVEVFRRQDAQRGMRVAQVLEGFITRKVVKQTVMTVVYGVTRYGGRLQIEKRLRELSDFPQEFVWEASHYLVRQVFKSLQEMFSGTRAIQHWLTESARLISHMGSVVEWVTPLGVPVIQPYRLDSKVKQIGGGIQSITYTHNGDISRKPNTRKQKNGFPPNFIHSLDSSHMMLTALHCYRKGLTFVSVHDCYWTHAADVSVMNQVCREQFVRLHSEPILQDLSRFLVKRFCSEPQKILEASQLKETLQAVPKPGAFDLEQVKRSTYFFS

For orientation: IC50 means the concentration at which inhibition is half-maximal. Molecule `Cc1ccccc1-c1cc(=O)oc2cc(N(C)C)ccc12` [Example 01, 7-(dimethylamino)-4-(o-tolyl)-2H-chromen-2-one] showed an IC50 of 400 nM.

`CC[C@@H](Nc1ccc2c(-c3ccccc3C)cc(=O)oc2c1)C(N)=O` [Example 211, (R)-2-((2-oxo-4-(o-tolyl)-2H-chromen-7-yl)amino)butanamide] gave a 50% inhibitory concentration (IC50) of 1000 nM. `CC(=O)NC1CCCN(C(=O)c2ccc3c(-c4ccccc4C)cc(=O)oc3c2)C1` (single isomer, unassigned) [Example 175, N-(1-(2-oxo-4-(o-tolyl)-2H-chromene-7-carbonyl)piperidin-3-yl)acetamide]: the IC50 was over 100000 nM.

`Cc1ccccc1-c1cc(=O)oc2cc(N(C)CC(=O)NC3CCOCC3)ccc12` [Example 139, 2-(methyl(2-oxo-4-(o-tolyl)-2H-chromen-7-yl)amino)-N-(tetrahydro-2H-pyran-4-yl)acetamide] came in with an IC50 of 100 nM. This counts as sub-micromolar. On to `Cc1ccccc1-c1cc(=O)oc2cc(CC(C)C(=O)N3CCCCC3)ccc12` (single isomer, unassigned) [Example 63, 7-(2-methyl-3-oxo-3-(piperidin-1-yl)propyl)-4-(o-tolyl)-2H-chromen-2-one], for which the IC50 amounted to 3000 nM. Compared with the last molecule, the IC50 is about 30-fold higher.

In turn, `COC[C@@H](C(=O)N1CCC[C@H](C(=O)O)C1)N(C)c1ccc2c(-c3ccccc3C)cc(=O)oc2c1` (single isomer, unassigned) [Example 120] registered an IC50 of 21000 nM. This IC50 is about 7-fold higher than that of the molecule before. The molecule `Cc1ccccc1-c1cc(=O)oc2cc(C(=O)N3CC(CO)C3)ccc12` [Example 118, 7-(3-(hydroxymethyl)azetidine-1-carbonyl)-4-(o-tolyl)-2H-chromen-2-one] registered an IC50 of 15000 nM. In turn, `COCc1ccc2c(-c3ccccc3C)cc(=O)oc2c1` [Example 10, 7-(methoxymethyl)-4-(o-tolyl)-2H-chromen-2-one] had an IC50 of 400 nM. With `CCOC(=O)[C@H]1CCCN(C(=O)C(C)Cc2ccc3c(-c4ccccc4C)cc(=O)oc3c2)C1` (single isomer, unassigned) [Example 88] the figure was 90 nM; with `CN(CCC(=O)O)c1ccc2c(-c3ccccc3Cl)cc(=O)oc2c1` [Example 132, 3-((4-(2-chlorophenyl)-2-oxo-2H-chromen-7-yl)(methyl)amino)propanoic acid], 1000 nM. For the molecule `Cc1ccccc1-c1cc(=O)oc2cc(N(C)Cc3ncco3)ccc12` [Example 188, 7-(methyl(oxazol-2-ylmethyl)amino)-4-(o-tolyl)-2H-chromen-2-one], the IC50 came out at 80 nM. In turn, `CC(=O)NC1CCCN(C(=O)c2ccc3c(-c4ccccc4C)cc(=O)oc3c2)C1` (single isomer, unassigned) [Example 176, N-(1-(2-oxo-4-(o-tolyl)-2H-chromene-7-carbonyl)piperidin-3-yl)acetamide] yielded an IC50 of 75000 nM. With `Cc1ccccc1-c1cc(=O)oc2cc(N(C)CC(=O)OC(C)C)ccc12` [Example 141, isopropyl N-methyl-N-(2-oxo-4-(o-tolyl)-2H-chromen-7-yl)glycinate] the figure was 20 nM; with `Cc1ccccc1-c1cc(=O)oc2cc(N(C)CC(=O)NCC(F)(F)F)ccc12` [Example 220, 2-(methyl(2-oxo-4-(o-tolyl)-2H-chromen-7-yl)amino)-N-(2,2,2-trifluoroethyl)acetamide], 100 nM.

Values taken from US20250326732A1 (Pretzel Therapeutics, Inc., priority 2021, published 2025).
